According to the supplement of paper PMC10627819:

What was measured:
B. subtilis 168 [1] = assay: fitness (endpoint OD595 vs no drug) (fraction); higher = more growth
Outline: (§1)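 Cultures at OD595 0.01 were dispensed into 384-well plates in TSB, LB Lennox or CY and incubated at 37 °C. Every 30 min for 14 h, OD595 was read and corrected by the first reading. Fitness is the optical density at entry into stationary phase relative to the robust mean of no-drug control wells, capped at 1.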

S. aureus DSM 20231 [2] = assay: as above
Outline: as §1

S. aureus Newman [3] = assay: as above
Outline: as §1

S. pneumoniae D39V [4] = assay: as above
Outline: as §1

B. subtilis 168 [5] = assay: Bliss interaction score (quartile over a dose matrix) (fitness difference); higher = more antagonism (negative = synergy)
Outline: (§2)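 Each plate was normalised to the robust mean of its own no-drug wells, using OD595 at entry into stationary phase, with values capped at 1. This normalised growth is the fitness value. The Bliss score is the difference between observed and product-expected fitness, with single-drug fitness inferred from the combination data and quartiles taken over technical, biological and donor/recipient replicates.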

S. aureus DSM 20231 [6] = assay: as above
Outline: as §2

S. aureus Newman [7] = assay: as above
Outline: as §2

S. pneumoniae D39V [8] = assay: as above
Outline: as §2
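For Bliss interaction score (quartile over a dose matrix) in this document: first quartile when negative (synergy) and third quartile when positive (antagonism).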

O=C(O[C@@H]1Cc2c(O)cc(O)cc2O[C@@H]1c1cc(O)c(O)c(O)c1)c1cc(O)c(O)c(O)c1 [EGCG] + CN1C2=CC=CC=C2N=C3C1=CC=CC3=O [Pyocyanin]
fitness
Conditions | first compound 6.25 µg/mL | first compound 12.5 µg/mL | first compound 25 µg/mL | first compound 50 µg/mL
B. subtilis 168 [1], partner 1.25 µg/mL | 0.81 | 0.898 | – | –
B. subtilis 168 [1], partner 2.5 µg/mL | 0.831 | 0.805 | 0.638 | –
B. subtilis 168 [1], partner 5 µg/mL | 0.662 | 0.645 | 0.485 | –
S. aureus DSM 20231 [2], partner 1.25 µg/mL | – | 0.677 | 0.689 | –
S. aureus DSM 20231 [2], partner 2.5 µg/mL | – | 0.693 | 0.682 | 0.624
S. aureus DSM 20231 [2], partner 5 µg/mL | – | 0.555 | 0.56 | 0.492
S. aureus Newman [3], partner 1.25 µg/mL | – | 0.679 | 0.616 | –
S. aureus Newman [3], partner 2.5 µg/mL | – | 0.647 | 0.548 | –
S. aureus Newman [3], partner 5 µg/mL | – | 0.403 | 0.409 | 0.315
S. pneumoniae D39V [4], partner 0.325 µg/mL | – | 0.986 | ≥ 1 | ≥ 1
S. pneumoniae D39V [4], partner 0.65 µg/mL | – | 0.976 | 0.98 | 0.925
S. pneumoniae D39V [4], partner 1.3 µg/mL | – | 0.638 | 0.628 | 0.75

Conditions | Bliss interaction score
B. subtilis 168 [5] | 0.187
S. aureus DSM 20231 [6] | -0.114
S. aureus Newman [7] | -0.0806
S. pneumoniae D39V [8] | -0.0423

O=C(O[C@@H]1Cc2c(O)cc(O)cc2O[C@@H]1c1cc(O)c(O)c(O)c1)c1cc(O)c(O)c(O)c1 [EGCG] + CN(N=O)C(=O)N[C@@H](C=O)[C@@H](O)[C@H](O)[C@H](O)CO [Streptozotocin]
fitness
Conditions | first compound 6.25 µg/mL | first compound 12.5 µg/mL | first compound 25 µg/mL | first compound 50 µg/mL
B. subtilis 168 [1], partner 0.15 µg/mL | 0.913 | 0.571 | – | –
B. subtilis 168 [1], partner 0.3 µg/mL | 0.856 | 0.62 | 0.449 | –
B. subtilis 168 [1], partner 0.6 µg/mL | 0.915 | 0.515 | 0.391 | –
S. aureus DSM 20231 [2], partner 0.15 µg/mL | – | 0.763 | 0.702 | 0.683
S. aureus DSM 20231 [2], partner 0.3 µg/mL | – | 0.643 | 0.635 | 0.658
S. aureus DSM 20231 [2], partner 0.6 µg/mL | – | 0.597 | 0.595 | 0.499
S. aureus Newman [3], partner 0.15 µg/mL | – | 0.711 | 0.804 | 0.783
S. aureus Newman [3], partner 0.3 µg/mL | – | 0.737 | 0.477 | 0.752
S. aureus Newman [3], partner 0.6 µg/mL | – | 0.404 | 0.416 | 0.572
S. pneumoniae D39V [4], partner 1.2 µg/mL | – | 0.911 | 0.947 | 0.919
S. pneumoniae D39V [4], partner 2.4 µg/mL | – | 0.891 | 0.935 | 0.91
S. pneumoniae D39V [4], partner 4.8 µg/mL | – | 0.907 | ≥ 1 | ≥ 1

Conditions | Bliss interaction score
B. subtilis 168 [5] | -0.0853
S. aureus DSM 20231 [6] | -0.0464
S. aureus Newman [7] | -0.0449
S. pneumoniae D39V [8] | 0.0662

O=C(O[C@@H]1Cc2c(O)cc(O)cc2O[C@@H]1c1cc(O)c(O)c(O)c1)c1cc(O)c(O)c(O)c1 [EGCG] + CN[C@@H]1[C@H](O)[C@H](NC)[C@H]2O[C@@]3(O)C(=O)C[C@@H](C)O[C@H]3O[C@@H]2[C@H]1O [Spectinomycin]
fitness
Conditions | B. subtilis 168 [1] | S. aureus DSM 20231 [2] | S. aureus Newman [3] | S. pneumoniae D39V [4]
first compound 6.25 µg/mL, partner 2 µg/mL | 0.919 | – | – | –
first compound 6.25 µg/mL, partner 4 µg/mL | 0.959 | – | – | –
first compound 6.25 µg/mL, partner 8 µg/mL | 0.942 | – | – | –
first compound 12.5 µg/mL, partner 4 µg/mL | – | 0.716 | 0.775 | 0.918
first compound 12.5 µg/mL, partner 8 µg/mL | 0.755 | 0.841 | 0.825 | 0.892
first compound 12.5 µg/mL, partner 16 µg/mL | – | 0.783 | 0.783 | 0.662
first compound 25 µg/mL, partner 4 µg/mL | – | 0.795 | 0.631 | 0.884
first compound 25 µg/mL, partner 8 µg/mL | 0.351 | 0.829 | 0.784 | 0.858
first compound 25 µg/mL, partner 16 µg/mL | – | 0.696 | – | 0.692
first compound 50 µg/mL, partner 4 µg/mL | – | 0.762 | – | 0.928
first compound 50 µg/mL, partner 8 µg/mL | – | 0.778 | 0.748 | 0.942
first compound 50 µg/mL, partner 16 µg/mL | – | 0.724 | – | –

fitness, one replicate
Conditions | first compound 12.5 µg/mL | first compound 25 µg/mL | first compound 50 µg/mL
S. aureus DSM 20231 [2], partner 32 µg/mL | 0.732 | 0.693 | 0.556
S. aureus DSM 20231 [2], partner 64 µg/mL | 0.118 | 0.0939 | 0.028
S. aureus Newman [3], partner 32 µg/mL | 0.385 | 0.167 | 0.0466
S. aureus Newman [3], partner 64 µg/mL | 0.0419 | 0.0446 | 0.0186

Conditions | Bliss interaction score
B. subtilis 168 [5] | -0.0513
S. aureus DSM 20231 [6] | -0.0655
S. aureus Newman [7] | -0.0777
S. pneumoniae D39V [8] | -0.0456

O=C(O[C@@H]1Cc2c(O)cc(O)cc2O[C@@H]1c1cc(O)c(O)c(O)c1)c1cc(O)c(O)c(O)c1 [EGCG] + COc1c(N2C[C@@H]3CCCN[C@@H]3C2)c(F)cc2c(=O)c(C(=O)O)cn(C3CC3)c12 [Moxifloxacin]
fitness
Conditions | first compound 6.25 µg/mL | first compound 12.5 µg/mL | first compound 25 µg/mL | first compound 50 µg/mL
B. subtilis 168 [1], partner 0.0312 µg/mL | 0.0635 | 0.316 | 0.136 | –
B. subtilis 168 [1], partner 0.0625 µg/mL | 0.0647 | 0.0486 | 0.0468 | –
B. subtilis 168 [1], partner 0.125 µg/mL | 0.0455 | 0.0337 | 0.032 | –
B. subtilis 168 [1], partner 2 µg/mL | 0.0355 | 0.0567 | 0.0285 | –
B. subtilis 168 [1], partner 4 µg/mL | 0.0375 | 0.028 | 0.0104 | –
B. subtilis 168 [1], partner 8 µg/mL | 0.0396 | 0.0267 | 0.0587 | –
S. aureus DSM 20231 [2], partner 0.0075 µg/mL | – | 0.686 | 0.605 | 0.629
S. aureus DSM 20231 [2], partner 0.015 µg/mL | – | 0.615 | 0.628 | 0.594
S. aureus DSM 20231 [2], partner 0.03 µg/mL | – | 0.53 | 0.554 | –
S. aureus Newman [3], partner 0.0075 µg/mL | – | 0.704 | 0.695 | –
S. aureus Newman [3], partner 0.015 µg/mL | – | – | – | 0.582
S. aureus Newman [3], partner 0.03 µg/mL | – | 0.3 | – | 0.0803
S. pneumoniae D39V [4], partner 0.005 µg/mL | – | 0.942 | 0.947 | 0.973
S. pneumoniae D39V [4], partner 0.01 µg/mL | – | 0.966 | 0.973 | 0.989
S. pneumoniae D39V [4], partner 0.02 µg/mL | – | 0.918 | 0.933 | 0.931
S. pneumoniae D39V [4], partner 0.0312 µg/mL | – | 0.265 | 0.152 | 0.499
S. pneumoniae D39V [4], partner 0.0625 µg/mL | – | 0.0738 | 0.0517 | 0.944
S. pneumoniae D39V [4], partner 0.125 µg/mL | – | 0.0322 | 0.0297 | 0.69

fitness, S. aureus DSM 20231 [2], one replicate
Conditions | first compound 12.5 µg/mL | first compound 25 µg/mL | first compound 50 µg/mL
partner 0.06 µg/mL | 0.636 | 0.584 | 0.607
partner 0.12 µg/mL | 0.537 | 0.495 | 0.506

Conditions | Bliss interaction score
B. subtilis 168 [5] | 0.04
S. aureus DSM 20231 [6] | -0.0635
S. aureus Newman [7] | 0.103
S. pneumoniae D39V [8] | -0.0486
